For this assay, the target named is human hisTRIM7-PRYSPRY (Homo sapiens, UniProt Q9C029). The experiment in a line: ITC binding to human TRIM7 PRYSPRY (wild type).

Where “and” joins values, the source holds several entries; their conditions need not be identical. Equal values may be shown once. Read-outs that look alike come from different tables or passages of the source. Ends that are not written are not given here. Peptide text beside a SMILES is read from it.

Usually Kd stands for the equilibrium constant for the complex coming apart.

AAAAALQ [polyA-LQ]: the Kd was 8.92 µM and 8 µM. The compound AIEALFQ [AIEALFQ] had a Kd of 17 ± 4.3 µM. Consider DNIKKKLDTYLQ [rbGYG322-333], for which the dissociation constant Kd (KD, ITC, one-site model, 15 °C, 50 mM phosphate pH 6.5, 1 mM DTT, TRIM7 500 µM, ligand 100 µM (peptide 50 µM), representative trace and fit) turned out to be 21 ± 1.8 µM.

For `CC(=O)N[C@@H](CC(C)C)C(=O)N[C@@H](CC(C)C)C(=O)N[C@@H](CCC(N)=O)C(=O)O` [Ac-LLQ] (Ac-Leu-Leu-Gln-OH), the affinity, expressed as Kd, was 38.7 ± 5.16 µM.

Regarding `CC(C)C[C@H](N)C(=O)N[C@@H](CCC(N)=O)C(=O)O` [LQ] (H-Leu-Gln-OH), binding was characterised by a dissociation constant (Kd) of 201 ± 30 µM.
